The values that follow come from PubChem BioAssay (NCI).

Several values for one entry are separate records, joined by “and”; a condition that tells them apart may be missing. Identical values can stand only once.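 Dose response: 5 concentrations. Exposure: 48 h. Format: 96-well plates. Endpoint: linear interpolation; highest concentration if not reached. GI50 = concentration required for 50% inhibition of growth. TGI marks complete inhibition of growth.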

Test systems include A498 renal; BT-549 breast; HT29 colon; OVCAR-3 ovarian; OVCAR-4 ovarian; RPMI-8226 leukemia; SF-268 CNS; SK-MEL-28 melanoma; SK-OV-3 ovarian; UACC-62 melanoma.
Holding throughout (test): growth of human tumour cells (NCI), 48 h

For `O=C(N/N=C/c1cc(Cl)ccc1O)c1ccccc1Nc1ccnc(C(F)(F)F)c1`, the GI50 was 0.585 µM in the assay with A498 renal; 1.08 µM with BT-549 breast; 1.95 µM in the assay with HT29 colon; 0.472 µM with OVCAR-3 ovarian; 0.299 µM with OVCAR-4 ovarian; 0.174 µM in the assay with RPMI-8226 leukemia. Further, the GI50 in the assay on SF-268 CNS is 0.37 µM; in the assay on SK-MEL-28 melanoma, 0.389 µM; with SK-OV-3 ovarian, 0.55 µM; in the assay on UACC-62 melanoma, 0.331 µM. Besides, the TGI in the assay with A498 renal was 7.9 µM; in the assay with BT-549 breast, 25.7 µM; in the assay on HT29 colon, 18.3 µM; with OVCAR-3 ovarian, 9.86 µM; in the assay with OVCAR-4 ovarian, 35 µM; in the assay with RPMI-8226 leukemia it was 1.2 µM. For the same molecule, the TGI came to 14.7 µM with SF-268 CNS, 15.1 µM in the assay on SK-MEL-28 melanoma, 19.1 µM in the assay with SK-OV-3 ovarian and 1.75 µM with UACC-62 melanoma.

Consider `COc1cc(C2c3cc4c(cc3[C@@H](Nc3ccc([N+](=O)[O-])cc3)C3COC(=O)[C@H]23)OCO4)cc(OC)c1O` (stereo partly drawn), for which the GI50 in the assay on A498 renal was 0.536 µM; in the assay on RPMI-8226 leukemia it was 0.256 µM; with SF-268 CNS it was 0.914 µM; in the assay on SK-OV-3 ovarian it was 0.798 µM; in the assay on UACC-62 melanoma, 0.547 µM. Further, the TGI with A498 renal was 4.8 µM; in the assay on BT-549 breast it was 6.39 µM; with HT29 colon, 7.81 µM; in the assay with OVCAR-3 ovarian, 17.3 µM; in the assay with OVCAR-4 ovarian, 62.4 µM; with RPMI-8226 leukemia, 7.22 µM. In addition, the TGI in the assay on SF-268 CNS was 39.5 µM; with SK-MEL-28 melanoma it was 34.8 µM; in the assay on SK-OV-3 ovarian, 10.1 µM; in the assay with UACC-62 melanoma it was 8.31 µM.

For `Cc1ccc(N=Nc2c(O)ccc3n[nH]nc23)cc1`, the GI50 is 1.99 µM with A498 renal; 21.2 µM with BT-549 breast; 31.8 µM in the assay with HT29 colon; 4.31 µM with OVCAR-3 ovarian; 9.3 µM in the assay with OVCAR-4 ovarian; 5.52 µM with RPMI-8226 leukemia. Also, the GI50 in the assay on SF-268 CNS is 14.9 µM; with SK-MEL-28 melanoma it was 20.6 µM; with SK-OV-3 ovarian it was 10.3 µM; in the assay on UACC-62 melanoma, 4.52 µM. The TGI with A498 renal was 42.2 µM; in the assay with BT-549 breast, greater than 100 µM; with HT29 colon it was greater than 100 µM; in the assay on OVCAR-3 ovarian, 22.2 µM; with OVCAR-4 ovarian it was greater than 100 µM; with RPMI-8226 leukemia, 55.4 µM. The TGI was 77.5 µM with SF-268 CNS, greater than 100 µM in the assay with SK-MEL-28 melanoma, greater than 100 µM in the assay with SK-OV-3 ovarian and 47.7 µM in the assay with UACC-62 melanoma.

For the molecule `Cc1ccc(NC(=S)C#N)c(C)c1`, the TGI is greater than 100 µM in the assay on A498 renal; greater than 100 µM in the assay with BT-549 breast; greater than 100 µM with HT29 colon; greater than 100 µM with OVCAR-3 ovarian; greater than 100 µM with OVCAR-4 ovarian; 76 µM with RPMI-8226 leukemia. The TGI in the assay with SF-268 CNS, in the assay on SK-MEL-28 melanoma, in the assay with SK-OV-3 ovarian and in the assay on UACC-62 melanoma was greater than 100 µM throughout.

Take `CSc1ccc(NC(=O)Nc2cc(C)ccn2)cc1`: the TGI with A498 renal, with BT-549 breast, in the assay on HT29 colon, in the assay with OVCAR-3 ovarian, in the assay on OVCAR-4 ovarian and in the assay on RPMI-8226 leukemia was greater than 100 µM throughout. For the same molecule, the TGI with SF-268 CNS, in the assay on SK-MEL-28 melanoma, with SK-OV-3 ovarian and in the assay on UACC-62 melanoma was greater than 100 µM throughout.

`C[C@H]1COCCN1c1nc(-c2cnc(N)cc2C(F)F)nc(N2CCOCC2)n1`: the GI50 in the assay on A498 renal is 0.0301 µM; in the assay on BT-549 breast, 0.098 µM; with HT29 colon, 0.176 µM; with OVCAR-3 ovarian, 0.224 µM; in the assay on OVCAR-4 ovarian, 0.174 µM; in the assay with RPMI-8226 leukemia, 0.134 µM. The GI50 in the assay on SF-268 CNS was 0.265 µM; with SK-MEL-28 melanoma, 0.115 µM; in the assay with SK-OV-3 ovarian it was 0.0614 µM; with UACC-62 melanoma, 0.0794 µM. Besides, the TGI in the assay with A498 renal is 0.164 µM; with BT-549 breast, 0.818 µM; in the assay with HT29 colon, greater than 100 µM; in the assay on OVCAR-3 ovarian, greater than 100 µM; in the assay on RPMI-8226 leukemia, 4.91 µM; with SF-268 CNS, greater than 100 µM. The TGI with SK-MEL-28 melanoma was 0.994 µM; in the assay on SK-OV-3 ovarian, 0.412 µM; in the assay on UACC-62 melanoma, 0.401 µM.

Turning to `C=C1C(=O)O[C@H]2[C@H]1CC/C(COC(=O)CCCCCCCC(=O)OC/C1=C/CC[C@@]3(C)O[C@H]3[C@H]3OC(=O)C(=C)[C@@H]3CC1)=C\CC[C@@]1(C)O[C@@H]21`, the GI50 is 12.3 µM in the assay with A498 renal; 1.59 µM in the assay on BT-549 breast; 2.02 µM with HT29 colon; 1.32 µM with OVCAR-3 ovarian; 4.58 µM with OVCAR-4 ovarian; 1.31 µM in the assay on RPMI-8226 leukemia. The GI50 in the assay with SF-268 CNS was 2.3 µM; in the assay with SK-MEL-28 melanoma, 2.94 µM; in the assay on SK-OV-3 ovarian, 13.1 µM; in the assay with UACC-62 melanoma it was 2.45 µM. For the same molecule, the TGI is 28.7 µM in the assay with A498 renal; 3.45 µM with BT-549 breast; 4.23 µM in the assay with HT29 colon; 2.79 µM in the assay with OVCAR-3 ovarian; 20.1 µM in the assay with OVCAR-4 ovarian; 6.46 µM with RPMI-8226 leukemia. The TGI with SF-268 CNS turned out to be 7.41 µM; in the assay on SK-MEL-28 melanoma, 11.4 µM; with SK-OV-3 ovarian it was 34.3 µM; with UACC-62 melanoma, 6.51 µM.

For the molecule `Oc1ccc(Cl)cc1Sc1cc(Cl)ccc1O`, the GI50 with A498 renal was 2.73 µM; in the assay with BT-549 breast it was 3 µM; in the assay on HT29 colon, 3.27 µM; with OVCAR-3 ovarian, 2.79 µM; in the assay on OVCAR-4 ovarian, 3.4 µM; in the assay on RPMI-8226 leukemia, 1.97 µM. Further, the GI50 in the assay on SF-268 CNS was 3.51 µM; in the assay with SK-MEL-28 melanoma it was 4.67 µM; in the assay on SK-OV-3 ovarian, 4.86 µM; in the assay with UACC-62 melanoma, 3.24 µM. Also, the TGI in the assay on A498 renal is 24.2 µM and 7.72 µM; in the assay on BT-549 breast, 33.6 µM and 9.29 µM; in the assay on HT29 colon, 33 µM and 12.6 µM; in the assay on OVCAR-3 ovarian, 15.4 µM and 6.8 µM; in the assay with OVCAR-4 ovarian, 22.9 µM and 13.5 µM; in the assay on SF-268 CNS it was 31.9 µM and 13.4 µM. In addition, the TGI with SK-MEL-28 melanoma was 26.3 µM and 15.3 µM; in the assay with SK-OV-3 ovarian, 43.5 µM and 19.1 µM; in the assay with UACC-62 melanoma it was 17.1 µM and 10.7 µM.
